Like-named read-outs stand apart in the source and are kept apart here.
Columns and labels:
[1] = molecular target: T1, human V1a receptor (hV1a) (Homo sapiens, UniProt P37288); assay: Radioligand binding assay (3H-AVP, SPA), human V1a; settings: 1 nM 3H-AVP
T1 construct: expressed in transfected cells; host or cells: HEK cells, transient transfection; membrane preparation
Experimental: (§1) The test compound was initially dissolved in DMSO at a concentration of 10 mM. Subsequent dilutions were made in assay buffer with a maximum final concentration of 0.2% DMSO.
(§2) Recombinant vasopressin V1a (human: hV1a; mouse: mV1a), V1b (human: hV1b) were independently expressed in human embryonic kidney (HEK) cells using transient transfection. The cell membranes expressing the various receptors were prepared by homogenizing (using Polytron homogenizer) the cell culture pellet in lysis buffer (50 mM HEPES, 1 mM EDTA, 10 mM MgCl2, pH 7.4 with protease inhibitors), then centrifuging the resulting suspension at 500 g for 20 min at 4° C. The supernatant was subsequently re-centrifuged at 43,000 g for 1 hour at 4° C. […] The concentration of protein was determined, and the membranes were aliquoted and stored at −80° C. until further use.
(§3) All radioligand binding assays were carried out in 96-well plates in the presence of 1 nM ^3H-AVP (vasopressin) radioligand, and 10 concentrations of test compound (ranging from 27 μM-1 nM or 2.7 μM-0.1 nM for hV1a binding). […] Filtration assays were terminated by rapid filtration under vacuum through GF/C filters, presoaked for 5 min with buffer B containing Tris 50 mM, MgCl2 5 mM, 0.1% BSA (pH 7.4), followed by 5×0.4 ml washes of ice-cold buffer B. For both SPA and filtration plates, bound ligand was determined using a Packard Topcount scintillation counter. […]

[2] = molecular target: T2, mouse V1a receptor (mV1a) (Mus musculus, UniProt Q62463); assay: Radioligand binding assay (3H-AVP, filtration), mouse V1a; settings: Ki ± SEM (n); 1 nM 3H-AVP
T2 construct: expressed in transfected cells; host or cells: HEK cells, transient transfection; membrane preparation
Experimental: as §1, §2, §3

T1 sequence (P37288 whole entry): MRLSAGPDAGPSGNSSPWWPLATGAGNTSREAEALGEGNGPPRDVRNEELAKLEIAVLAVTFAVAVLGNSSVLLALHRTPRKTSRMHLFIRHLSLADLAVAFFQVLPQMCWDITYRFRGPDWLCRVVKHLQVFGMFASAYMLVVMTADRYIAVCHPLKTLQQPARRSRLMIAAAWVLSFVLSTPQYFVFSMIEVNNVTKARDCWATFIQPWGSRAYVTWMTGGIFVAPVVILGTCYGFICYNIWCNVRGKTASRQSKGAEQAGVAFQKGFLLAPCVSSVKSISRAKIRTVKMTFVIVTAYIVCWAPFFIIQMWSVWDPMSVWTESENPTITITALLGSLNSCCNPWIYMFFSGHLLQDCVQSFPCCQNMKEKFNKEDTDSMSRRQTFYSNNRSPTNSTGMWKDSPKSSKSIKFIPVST
T2 sequence (Q62463 whole entry): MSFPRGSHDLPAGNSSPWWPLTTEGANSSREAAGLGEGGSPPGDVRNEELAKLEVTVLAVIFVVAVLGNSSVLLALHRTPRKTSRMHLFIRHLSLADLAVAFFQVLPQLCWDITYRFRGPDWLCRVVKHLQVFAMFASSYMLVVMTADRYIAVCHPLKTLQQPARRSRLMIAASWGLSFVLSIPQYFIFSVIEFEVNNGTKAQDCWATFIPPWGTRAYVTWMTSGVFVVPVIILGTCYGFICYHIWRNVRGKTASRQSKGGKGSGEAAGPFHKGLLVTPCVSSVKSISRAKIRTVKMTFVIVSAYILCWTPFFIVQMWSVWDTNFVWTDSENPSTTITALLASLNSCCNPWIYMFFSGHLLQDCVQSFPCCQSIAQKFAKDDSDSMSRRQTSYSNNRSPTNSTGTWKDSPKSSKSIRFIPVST

In the case of `CN1Cc2cc(Cl)ccc2-n2c(nnc2[C@H]2CC[C@H](Oc3ccccn3)CC2)C1` [Example 1, trans-8-chloro-5-methyl-1-(4-pyridin-2-yloxycyclohexyl)-4,6-dihydro-[1,2,4]triazolo[4,3-a][1,4]benzodiazepine], the Ki ([1]; Ki ± SEM (n), read-out: Ki V1a Human) is reported as 0.7 ± 0.1 nM, the Ki ([1]; pKi ± SEM (n), read-out: pKi V1a Human (converted)) is reported as 0.776 nM and the Ki [2] is reported as 77 ± 2 nM.

Source: patent US10265327B2, “V1A antagonists to treat phase shift sleep disorders” (Hoffmann-La Roche Inc., priority 2013, dated 2019)
